Results reported in patent US20030199431A1, “Modified peptide nucleic acid (PNA) molecules” (priority 1999, published 2003).
Like-named read-outs stand apart in the source and are kept apart here.

Experiments:
E. coli K12 = type: cell-based, Escherichia coli
Description: To test the effect of a Peptide without a PNA, peptide no. 2339, H-KFFKFFKFF-OH (SEQ ID NO: 1), was added to E. coli K12 in 10% and 100% medium (Mueller-Hinton broth).

test culture = type: cell-based

With H-KFFKFFKFF-OH [Peptide 2339] the Bacterial growth inhibition (E. coli K12; Peptide 100 nM, 4.0 × 10^3 bacteria/ml, 10% medium) was “− (Lagphase extended less than five times;)”, the Bacterial growth inhibition (E. coli K12; Peptide 100 nM, 4.0 × 10^4 bacteria/ml, 10% medium) was “− (Lagphase extended less than five times;)” and the Bacterial growth inhibition (E. coli K12; Peptide 100 nM, 7.9 × 10^3 bacteria/ml, 10% medium) was “− (Lagphase extended less than five times;)”. For the same substance, the Bacterial growth inhibition (E. coli K12; Peptide 100 nM, 16 bacteria/ml, 100% medium) was “− (Lagphase extended less than five times)”, the Bacterial growth inhibition (E. coli K12; Peptide 100 nM, 160 bacteria/ml, 100% medium) was “− (Lagphase extended less than five times)” and the Bacterial growth inhibition (E. coli K12; Peptide 100 nM, 1600 bacteria/ml, 100% medium) was “− (Lagphase extended less than five times)”. For the same substance, the Bacterial growth inhibition (E. coli K12; Peptide 300 nM, 4.0 × 10^3 bacteria/ml, 10% medium) was “− (Lagphase extended less than five times;)”, the Bacterial growth inhibition (E. coli K12; Peptide 300 nM, 4.0 × 10^4 bacteria/ml, 10% medium) was “− (Lagphase extended less than five times;)” and the Bacterial growth inhibition (E. coli K12; Peptide 300 nM, 7.9 × 10^3 bacteria/ml, 10% medium) was “− (Lagphase extended less than five times;)”. For the same substance, the Bacterial growth inhibition (E. coli K12; Peptide 300 nM, 16 bacteria/ml, 100% medium) was “− (Lagphase extended less than five times)”, the Bacterial growth inhibition (E. coli K12; Peptide 300 nM, 160 bacteria/ml, 100% medium) was “− (Lagphase extended less than five times)” and the Bacterial growth inhibition (E. coli K12; Peptide 300 nM, 1600 bacteria/ml, 100% medium) was “− (Lagphase extended less than five times)”. For the same substance, the Bacterial growth inhibition (E. coli K12; Peptide 500 nM, 4.0 × 10^3 bacteria/ml, 10% medium) was “− (Lagphase extended less than five times;)”, the Bacterial growth inhibition (E. coli K12; Peptide 500 nM, 4.0 × 10^4 bacteria/ml, 10% medium) was “− (Lagphase extended less than five times;)” and the Bacterial growth inhibition (E. coli K12; Peptide 500 nM, 7.9 × 10^3 bacteria/ml, 10% medium) was “− (Lagphase extended less than five times;)”. For the same substance, the Bacterial growth inhibition (E. coli K12; Peptide 500 nM, 16 bacteria/ml, 100% medium) was “− (Lagphase extended less than five times)”, the Bacterial growth inhibition (E. coli K12; Peptide 500 nM, 160 bacteria/ml, 100% medium) was “− (Lagphase extended less than five times)” and the Bacterial growth inhibition (E. coli K12; Peptide 500 nM, 1600 bacteria/ml, 100% medium) was “− (Lagphase extended less than five times)”. The Bacterial growth inhibition (E. coli K12; Peptide 700 nM, 4.0 × 10^3 bacteria/ml, 10% medium) was “− (Lagphase extended less than five times;)”, the Bacterial growth inhibition (E. coli K12; Peptide 700 nM, 4.0 × 10^4 bacteria/ml, 10% medium) was “− (Lagphase extended less than five times;)” and the Bacterial growth inhibition (E. coli K12; Peptide 700 nM, 7.9 × 10^3 bacteria/ml, 10% medium) was “− (Lagphase extended less than five times;)”. For the same substance, the Bacterial growth inhibition (E. coli K12; Peptide 700 nM, 16 bacteria/ml, 100% medium) was “− (Lagphase extended less than five times)”, the Bacterial growth inhibition (E. coli K12; Peptide 700 nM, 160 bacteria/ml, 100% medium) was “− (Lagphase extended less than five times)” and the Bacterial growth inhibition (E. coli K12; Peptide 700 nM, 1600 bacteria/ml, 100% medium) was “− (Lagphase extended less than five times)”. The Bacterial growth inhibition (E. coli K12; Peptide 900 nM, 4.0 × 10^3 bacteria/ml, 10% medium) was “− (Lagphase extended less than five times;)”, the Bacterial growth inhibition (E. coli K12; Peptide 900 nM, 4.0 × 10^4 bacteria/ml, 10% medium) was “− (Lagphase extended less than five times;)” and the Bacterial growth inhibition (E. coli K12; Peptide 900 nM, 7.9 × 10^3 bacteria/ml, 10% medium) was “− (Lagphase extended less than five times;)”. For the same substance, the Bacterial growth inhibition (E. coli K12; Peptide 900 nM, 16 bacteria/ml, 100% medium) was “− (Lagphase extended less than five times)”, the Bacterial growth inhibition (E. coli K12; Peptide 900 nM, 160 bacteria/ml, 100% medium) was “− (Lagphase extended less than five times)” and the Bacterial growth inhibition (E. coli K12; Peptide 900 nM, 1600 bacteria/ml, 100% medium) was “− (Lagphase extended less than five times)”. For the same substance, the Bacterial growth inhibition (E. coli K12; Peptide 1100 nM, 4.0 × 10^3 bacteria/ml, 10% medium) was “− (Lagphase extended less than five times;)”, the Bacterial growth inhibition (E. coli K12; Peptide 1100 nM, 4.0 × 10^4 bacteria/ml, 10% medium) was “− (Lagphase extended less than five times;)” and the Bacterial growth inhibition (E. coli K12; Peptide 1100 nM, 7.9 × 10^3 bacteria/ml, 10% medium) was “− (Lagphase extended less than five times;)”. The Bacterial growth inhibition (E. coli K12; Peptide 1100 nM, 16 bacteria/ml, 100% medium) was “− (Lagphase extended less than five times)”, the Bacterial growth inhibition (E. coli K12; Peptide 1100 nM, 160 bacteria/ml, 100% medium) was “− (Lagphase extended less than five times)” and the Bacterial growth inhibition (E. coli K12; Peptide 1100 nM, 1600 bacteria/ml, 100% medium) was “− (Lagphase extended less than five times)”. The Bacterial growth inhibition (E. coli K12; Peptide 1300 nM, 4.0 × 10^3 bacteria/ml, 10% medium) was “− (Lagphase extended less than five times;)”, the Bacterial growth inhibition (E. coli K12; Peptide 1300 nM, 4.0 × 10^4 bacteria/ml, 10% medium) was “− (Lagphase extended less than five times;)” and the Bacterial growth inhibition (E. coli K12; Peptide 1300 nM, 7.9 × 10^3 bacteria/ml, 10% medium) was “− (Lagphase extended less than five times;)”. The Bacterial growth inhibition (E. coli K12; Peptide 1300 nM, 16 bacteria/ml, 100% medium) was “− (Lagphase extended less than five times)”, the Bacterial growth inhibition (E. coli K12; Peptide 1300 nM, 160 bacteria/ml, 100% medium) was “− (Lagphase extended less than five times)” and the Bacterial growth inhibition (E. coli K12; Peptide 1300 nM, 1600 bacteria/ml, 100% medium) was “− (Lagphase extended less than five times)”. For the same substance, the Bacterial growth inhibition (E. coli K12; Peptide 1500 nM, 4.0 × 10^3 bacteria/ml, 10% medium) was “− (Lagphase extended less than five times;)”, the Bacterial growth inhibition (E. coli K12; Peptide 1500 nM, 4.0 × 10^4 bacteria/ml, 10% medium) was “− (Lagphase extended less than five times;)” and the Bacterial growth inhibition (E. coli K12; Peptide 1500 nM, 7.9 × 10^3 bacteria/ml, 10% medium) was “− (Lagphase extended less than five times;)”. For the same substance, the Bacterial growth inhibition (E. coli K12; Peptide 1500 nM, 16 bacteria/ml, 100% medium) was “− (Lagphase extended less than five times)”, the Bacterial growth inhibition (E. coli K12; Peptide 1500 nM, 160 bacteria/ml, 100% medium) was “− (Lagphase extended less than five times)” and the Bacterial growth inhibition (E. coli K12; Peptide 1500 nM, 1600 bacteria/ml, 100% medium) was “− (Lagphase extended less than five times)”. The Bacterial growth inhibition (E. coli K12; Peptide 2500 nM, 4.0 × 10^3 bacteria/ml, 10% medium) was “− (Lagphase extended less than five times;)”, the Bacterial growth inhibition (E. coli K12; Peptide 2500 nM, 4.0 × 10^4 bacteria/ml, 10% medium) was “− (Lagphase extended less than five times;)” and the Bacterial growth inhibition (E. coli K12; Peptide 2500 nM, 7.9 × 10^3 bacteria/ml, 10% medium) was “− (Lagphase extended less than five times;)”. The Bacterial growth inhibition (E. coli K12; Peptide 2500 nM, 16 bacteria/ml, 100% medium) was “− (Lagphase extended less than five times)”, the Bacterial growth inhibition (E. coli K12; Peptide 2500 nM, 160 bacteria/ml, 100% medium) was “− (Lagphase extended less than five times)” and the Bacterial growth inhibition (E. coli K12; Peptide 2500 nM, 1600 bacteria/ml, 100% medium) was “− (Lagphase extended less than five times)”. The Bacterial growth inhibition (E. coli K12; Peptide 5000 nM, 4.0 × 10^3 bacteria/ml, 10% medium) was “((+)) (Lagphase extended less than five times, but still with growth curve effect)”, the Bacterial growth inhibition (E. coli K12; Peptide 5000 nM, 4.0 × 10^4 bacteria/ml, 10% medium) was “((+)) (Lagphase extended less than five times, but still with growth curve effect)” and the Bacterial growth inhibition (E. coli K12; Peptide 5000 nM, 7.9 × 10^3 bacteria/ml, 10% medium) was “((+)) (Lagphase extended less than five times, but still with growth curve effect)”. For the same substance, the Bacterial growth inhibition (E. coli K12; Peptide 5000 nM, 16 bacteria/ml, 100% medium) was “− (Lagphase extended less than five times)”, the Bacterial growth inhibition (E. coli K12; Peptide 5000 nM, 160 bacteria/ml, 100% medium) was “− (Lagphase extended less than five times)” and the Bacterial growth inhibition (E. coli K12; Peptide 5000 nM, 1600 bacteria/ml, 100% medium) was “− (Lagphase extended less than five times)”. For the same substance, the Bacterial growth inhibition (E. coli K12; Peptide 10000 nM, 4.0 × 10^3 bacteria/ml, 10% medium) was “((+)) (Lagphase extended less than five times, but still with growth curve effect)”, the Bacterial growth inhibition (E. coli K12; Peptide 10000 nM, 4.0 × 10^4 bacteria/ml, 10% medium) was “((+)) (Lagphase extended less than five times, but still with growth curve effect)” and the Bacterial growth inhibition (E. coli K12; Peptide 10000 nM, 7.9 × 10^3 bacteria/ml, 10% medium) was “((+)) (Lagphase extended less than five times, but still with growth curve effect)”. For the same substance, the Bacterial growth inhibition (E. coli K12; Peptide 10000 nM, 16 bacteria/ml, 100% medium) was “− (Lagphase extended less than five times)”, the Bacterial growth inhibition (E. coli K12; Peptide 10000 nM, 160 bacteria/ml, 100% medium) was “− (Lagphase extended less than five times)” and the Bacterial growth inhibition (E. coli K12; Peptide 10000 nM, 1600 bacteria/ml, 100% medium) was “− (Lagphase extended less than five times)”. The Bacterial growth inhibition (E. coli K12; Peptide 15000 nM, 4.0 × 10^3 bacteria/ml, 10% medium) was “((+)) (Lagphase extended less than five times, but still with growth curve effect)”, the Bacterial growth inhibition (E. coli K12; Peptide 15000 nM, 4.0 × 10^4 bacteria/ml, 10% medium) was “((+)) (Lagphase extended less than five times, but still with growth curve effect)” and the Bacterial growth inhibition (E. coli K12; Peptide 15000 nM, 7.9 × 10^3 bacteria/ml, 10% medium) was “((+)) (Lagphase extended less than five times, but still with growth curve effect)”. The Bacterial growth inhibition (E. coli K12; Peptide 15000 nM, 16 bacteria/ml, 100% medium) was “− (Lagphase extended less than five times)”, the Bacterial growth inhibition (E. coli K12; Peptide 15000 nM, 160 bacteria/ml, 100% medium) was “− (Lagphase extended less than five times)” and the Bacterial growth inhibition (E. coli K12; Peptide 15000 nM, 1600 bacteria/ml, 100% medium) was “− (Lagphase extended less than five times)”. The Bacterial growth inhibition (E. coli K12; Peptide 20000 nM, 4.0 × 10^3 bacteria/ml, 10% medium) was “+”, the Bacterial growth inhibition (E. coli K12; Peptide 20000 nM, 4.0 × 10^4 bacteria/ml, 10% medium) was “((+)) (Lagphase extended less than five times, but still with growth curve effect)” and the Bacterial growth inhibition (E. coli K12; Peptide 20000 nM, 7.9 × 10^3 bacteria/ml, 10% medium) was “+”. The Bacterial growth inhibition (E. coli K12; Peptide 20000 nM, 16 bacteria/ml, 100% medium) was “(+) (Significantly extended lagphase, (more than five times))”, the Bacterial growth inhibition (E. coli K12; Peptide 20000 nM, 160 bacteria/ml, 100% medium) was “− (Lagphase extended less than five times)” and the Bacterial growth inhibition (E. coli K12; Peptide 20000 nM, 1600 bacteria/ml, 100% medium) was “− (Lagphase extended less than five times)”. For the same substance, the “Peptide concentration giving total inhibition of growth” value (E. coli K12; cultures with 7.9×10^3 cells/ml, peptide without PNA) was “at least 20,000 nM”, the “Peptide concentration at which minimal signs of growth inhibition were detected” value (E. coli K12; peptide without PNA) was ≥ 5,000 nM and the Bacterial growth inhibition (test culture) was “− (key: +: Total inhibition of bacterial growth.; (+): Significantly extended lagphase, (more than five times); −: Lagphase extended less than five times;)”.
